Our source for the IC50 and inhibition values is patent US5332726A, “Antithrombotic peptides and pseudopeptides” (Rhone-Poulenc Rorer Pharmaceuticals Inc., priority 1992, dated 1994).

Experiment [1] deals with thrombin-stimulated platelets (Homo sapiens, UniProt P05106+P08514). The experiment can be described thus: Fibrinogen-Binding Assay (125I-fibrinogen binding to platelets). The following applies: for pIC50: 125I-fibrinogen 0.176 μmol/liter, thrombin-stimulated platelets, read-out: Inhibition of 125I-Fibrinogen Binding to Platelets IC50. The protocol: Platelets are washed free of plasma constituents by the albumin density-gradient technique of Walsh, P. N., et al., Br. J. Haematol. […] After these additions, the final platelet count in the mixture is 1×10^11 /liter. After incubation for an additional 30 minutes at 22°-25° C., bound and free ligand are separated by centrifuging 50 μl of the mixture through 300 μl of 20% sucrose at 12,000×g for 4 minutes. The platelet pellet is then separated from the rest of the mixture to determine platelet-bound radioactivity. Nonspecific binding is measured in mixtures containing an excess of unlabeled ligand. […] The IC50 is derived by plotting residual fibrinogen binding against the logarithm of the sample compound's concentration.
Chain of thrombin-stimulated platelets (P08514 32-1039): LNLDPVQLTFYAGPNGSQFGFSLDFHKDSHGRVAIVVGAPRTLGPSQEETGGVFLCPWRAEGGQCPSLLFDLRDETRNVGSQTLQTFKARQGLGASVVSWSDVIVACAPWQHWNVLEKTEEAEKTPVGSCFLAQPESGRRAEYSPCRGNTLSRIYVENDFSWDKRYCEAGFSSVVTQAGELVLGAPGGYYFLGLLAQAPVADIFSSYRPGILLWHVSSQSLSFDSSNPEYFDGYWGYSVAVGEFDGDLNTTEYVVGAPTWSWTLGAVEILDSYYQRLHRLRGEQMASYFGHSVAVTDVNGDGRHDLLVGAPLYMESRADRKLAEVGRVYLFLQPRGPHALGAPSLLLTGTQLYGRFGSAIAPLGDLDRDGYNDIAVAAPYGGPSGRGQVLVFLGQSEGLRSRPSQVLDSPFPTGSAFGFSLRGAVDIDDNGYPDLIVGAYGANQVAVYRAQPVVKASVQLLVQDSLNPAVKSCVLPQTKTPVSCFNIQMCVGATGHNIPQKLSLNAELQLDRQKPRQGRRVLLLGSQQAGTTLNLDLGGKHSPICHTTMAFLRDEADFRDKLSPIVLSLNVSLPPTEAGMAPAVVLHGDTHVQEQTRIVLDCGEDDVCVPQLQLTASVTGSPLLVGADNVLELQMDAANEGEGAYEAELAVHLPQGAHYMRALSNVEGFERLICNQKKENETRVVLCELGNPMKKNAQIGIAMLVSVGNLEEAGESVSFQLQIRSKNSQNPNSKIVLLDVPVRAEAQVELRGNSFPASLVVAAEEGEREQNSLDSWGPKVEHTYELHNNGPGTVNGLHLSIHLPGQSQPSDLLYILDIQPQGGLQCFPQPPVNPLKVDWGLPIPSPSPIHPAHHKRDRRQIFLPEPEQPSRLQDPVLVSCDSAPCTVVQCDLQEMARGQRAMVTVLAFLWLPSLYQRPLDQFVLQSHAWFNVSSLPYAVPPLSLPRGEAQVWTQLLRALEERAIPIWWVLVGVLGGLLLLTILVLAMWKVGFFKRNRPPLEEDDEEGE
Chain of thrombin-stimulated platelets (P05106 27-788): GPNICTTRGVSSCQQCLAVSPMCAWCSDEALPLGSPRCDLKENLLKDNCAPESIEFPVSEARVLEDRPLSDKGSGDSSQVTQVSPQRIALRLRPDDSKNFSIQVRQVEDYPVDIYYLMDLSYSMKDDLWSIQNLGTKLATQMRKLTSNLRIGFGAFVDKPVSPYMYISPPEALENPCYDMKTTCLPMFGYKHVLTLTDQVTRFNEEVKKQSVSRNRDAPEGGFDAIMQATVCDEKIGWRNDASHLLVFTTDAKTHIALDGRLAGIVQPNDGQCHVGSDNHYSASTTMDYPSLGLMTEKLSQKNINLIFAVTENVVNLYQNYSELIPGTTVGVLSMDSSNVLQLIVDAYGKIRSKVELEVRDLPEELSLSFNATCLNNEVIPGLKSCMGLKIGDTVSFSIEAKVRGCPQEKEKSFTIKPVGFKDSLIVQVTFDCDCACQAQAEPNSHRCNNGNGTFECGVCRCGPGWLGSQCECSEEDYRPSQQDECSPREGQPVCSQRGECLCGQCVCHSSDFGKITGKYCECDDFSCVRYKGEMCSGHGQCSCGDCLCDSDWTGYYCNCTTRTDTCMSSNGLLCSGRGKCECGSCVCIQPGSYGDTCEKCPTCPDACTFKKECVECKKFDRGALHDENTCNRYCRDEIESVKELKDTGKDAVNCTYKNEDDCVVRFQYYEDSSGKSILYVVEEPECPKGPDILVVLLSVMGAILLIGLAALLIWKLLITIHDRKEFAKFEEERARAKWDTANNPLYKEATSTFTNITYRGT

Experiment [2] deals with fixed activated platelets (Homo sapiens, UniProt P05106+P08514). As to the kind of experiment: Platelet Aggregation Assay (fibrinogen-mediated aggregation of fixed-activated platelets). The experiment is classed as cell-based. To be noted: for pIC50: fixed activated platelets, human fibrinogen 250 μg/ml, read-out: Inhibition of Fibrinogen Mediated Platelet Aggregation IC50; for inhibition at 25 µM: read-out: Inhibition of Fibrinogen Mediated Platelet Aggregation % inhibition at 25 μM; for inhibition at 100 µM: read-out: Inhibition of Fibrinogen Mediated Platelet Aggregation % inhibition at 100 μM. The protocol: PLATELET AGGREGATION ASSAY
Chain of fixed activated platelets (P08514 32-1039): as the sequence (P08514 32-1039) above
Chain of fixed activated platelets (P05106 27-788): as the sequence (P05106 27-788) above
Preparation of Fixed-Activated Platelets
To the activated platelets is added paraformaldehyde to a final concentration of 0.50% and this incubated at room temperature for 30 minutes. The fixed activated platelets are then collected by centrifugation at 650×g for 15 minutes.
Platelet Aggregation Assay
The fixed activated platelets are incubated with a selected dose of the compound to be tested for platelet aggregation inhibition for one minute and aggregation initiated by addition of human fibrinogen to a final concentration of 250 μg/ml. A platelet aggregation profiler Model PAP-4 is used to record the platelet aggregation.

pIC50: −log10 of the molar value. Non-standard residues stand in square brackets, D forms with d. Residues, ends and D or L forms follow the SMILES beside them. NMeV = CN[C@H](C(=O)O)C(C)C; Aoc = NCCCCCCCC(=O)O; Ava = NCCCCC(=O)O; Sar = CNCC(=O)O

For `CC(C)[C@H](NC(=O)[C@H](CC(=O)O)NC(=O)CCCCCCCn1ccnc1)C(=O)O` [8-(Imidazol-1-yl)-octanoyl-L-aspartyl-L-valine], the negative logarithm of the IC50 (pIC50) in experiment [1] was 6.07; in experiment [2] it was 4.94. Also, the inhibition at 25 µM in experiment [2] amounted to 78%.

Turning to `CCN(CC(=O)N[C@@H](CC(=O)O)C(=O)N[C@H](C(=O)O)C(C)C)C(=O)CCCCCn1ccnc1` [6-(Imidazol-1-yl)-hexanoyl-N-ethylglycyl-L-aspartyl-L-valine], the values for the pIC50 in experiment [1] and in experiment [2] were 6.05 and 6.00, respectively. The inhibition at 25 µM in experiment [2] is 95%.

Turning to `CC(C)[C@H](NC(=O)[C@H](CC(=O)O)NC(=O)CNC(=O)CCCCCCNC(=N)N)C(=O)O` [7-Guanidinoheptanoyl-glycyl-L-aspartyl-L-valine], in experiment [1], the pIC50 is 5.19. Also, in experiment [2], the pIC50 was 4.68 and the inhibition at 25 µM was 56%.

On to `CC(C)[C@H](NC(=O)[C@H](CC(=O)O)NC(=O)CCCCCCCCn1ccnc1)C(=O)O` [9-(Imidazol-1-yl)-nonanoyl-L-aspartyl-L-valine], for which the pIC50 in experiment [1] is 6.30. Also, in experiment [2], the pIC50 was 5.47 and the inhibition at 25 µM was 96%.

With `CC[C@H](C)[C@H](NC(=O)[C@H](CC(=O)O)NC(=O)CCCCCCCCNC(=N)N)C(=O)N[C@@H](CCCNC(=N)N)C(=O)O` [9-Guanidinononanoyl-L-aspartyl-isoleucyl-arginine], in experiment [1], the pIC50 was 6.43. Besides, in experiment [2], the pIC50 was 6.17 and the inhibition at 25 µM turned out to be 94%.

With `CCCC[C@H](NC(=O)[C@H](CC(=O)O)NC(=O)CCCCCCCCNC(=N)N)C(=O)N[C@@H](CCCNC(=N)N)C(=O)O` [9-Guanidinononanoyl-L-aspartyl-L-norleucyl-L-arginine], the negative logarithm of the IC50 (pIC50) in experiment [1] is 6.68; in experiment [2], 6.52. For the same compound, in experiment [2], the inhibition at 25 µM is 95%.

For the compound `CC[C@H](C)[C@H](NC(=O)[C@H](CC(=O)O)NC(=O)CCCCCCCCNC(=N)N)C(=O)NCCCCNC(=N)N` [9-Guanidinononanoyl-L-aspartyl-isoleucine-4-guanidinobutyl amide], in experiment [1], the pIC50 is 6.62. Also, in experiment [2], the pIC50 is 5.24 and the inhibition at 25 µM amounted to 95%.

With `CC(C)C[C@H](NC(=O)[C@H](CC(=O)O)NC(=O)CCCCCCCCNC(=N)N)C(=O)O` [9-guanidinononanoyl-L-aspartyl-L-leucine], the pIC50 in experiment [1] is 6.40. Also, in experiment [2], the pIC50 was 6.23 and the inhibition at 25 µM was found to be 95%.

For the compound `CC(C)C[C@H](NC(=O)[C@H](CC(=O)O)NC(=O)CN(C)C(=O)CCCCCNC(=N)N)C(=O)O` [6-Guanidinohexanoyl-L-sarcosyl-L-aspartyl-L-leucine], the pIC50 in experiment [1] was 7.05. Further, in experiment [2], the pIC50 is 6.48 and the inhibition at 25 µM was 88%.

Take `CC(C)[C@H](NC(=O)[C@H](CC(=O)O)NC(=O)CN(Cc1ccccc1)C(=O)CCCCCNC(=N)N)C(=O)O` [6-Guanidinohexanoyl-N-benzylglycyl-L-aspartyl-L-valine]: the pIC50 in experiment [1] is 6.08. Also, in experiment [2], the negative logarithm of the IC50 (pIC50) is 5.24 and the inhibition at 25 µM amounted to 85%.

On to `N=C(N)NCCCCCCCCC(=O)N[C@@H](CC(=O)O)C(=O)N[C@@H](CCCNC(=N)N)C(=O)N[C@@H](CCCNC(=N)N)C(=O)O` [9-Guanidinononanoyl-L-aspartyl-L-arginyl-L-arginine], for which the pIC50 in experiment [1] was 4.82. Further, in experiment [2], the negative logarithm of the IC50 (pIC50) is 4.82 and the inhibition at 25 µM came out at 68%.

On to `CC(C)[C@H](NC(=O)[C@H](CC(=O)O)NC(=O)CCCCCCCCCCNC(=N)N)C(=O)O` [11-guanidinoundecanoyl-L-aspartyl-L-valine], for which the pIC50 in experiment [1] was 4.77. The inhibition at 25 µM in experiment [2] was found to be 36%.

In the case of `CC(C)[C@H](NC(=O)CNC(=O)CNC(=O)[C@@H](N)CCCNC(=N)N)C(=O)O` [L-arginyl glycyl glycyl-L-valine] (H-RGGV-OH), the pIC50 was below 3.70 in experiment [1] and below 4.00 in experiment [2]. For the same compound, the inhibition at 100 µM in experiment [2] turned out to be 10%.

For `CC[C@H](C)[C@H](NC(=O)[C@H](CC(=O)O)NC(=O)CN(CC)C(=O)CCCCCNC(=N)N)C(=O)O` [6-Guanidinohexanoyl-N-ethylglycyl-L-aspartyl-L-isoleucine], the pIC50 in experiment [1] was 7.30; in experiment [2], 6.25. The inhibition at 25 µM in experiment [2] is 96%.

In the case of `CC(C)[C@H](NC(=O)[C@H](CC(=O)O)NC(=O)CCCCCCCCCn1ccnc1)C(=O)O` [10-(Imidazol-1-yl)decanoyl-L-aspartyl-L-valine], the pIC50 in experiment [1] is 4.70; in experiment [2] it was below 4.60. Also, the inhibition at 25 µM in experiment [2] came out at 45%.

With `CCN(CC(=O)N[C@@H](CC(=O)O)C(=O)N[C@@H](CCCNC(=N)N)C(=O)O)C(=O)CCCCCNC(=N)N` [6-Guanidinohexanoyl-N-ethylglycyl-L-aspartyl-L-arginine], in experiment [1], the pIC50 was 6.62. For the same compound, in experiment [2], the pIC50 is 5.85 and the inhibition at 25 µM came to 97%.

`CC[C@H](C)[C@H](NC(=O)[C@H](CC(=O)O)NC(=O)CCCCCCCCNC(=N)N)C(=O)N[C@H](CCCNC(=N)N)C(=O)O` [9-Guanidinononanoyl-L-aspartyl-L-isoleucyl-D-arginine]: in experiment [1], the pIC50 is 4.82. Also, in experiment [2], the pIC50 was 5.70 and the inhibition at 25 µM was found to be 97%.

Turning to `CC(C)[C@H](NC(=O)[C@H](CC(=O)O)NC(=O)CNC(=O)CCCCN)C(=O)O` [N-(5-Aminopentanoyl) glycyl-L-aspartyl-L-valine] (H-[Ava]GDV-OH), the pIC50 in experiment [1] was 4.16. Besides, in experiment [2], the pIC50 was below 4.19 and the inhibition at 100 µM is 67%.

With `CC(C)[C@H](NC(=O)[C@H](CC(=O)O)NC(=O)CN(C)C(=O)CCCCCCCN)C(=O)O` [8-Aminooctanoyl-sarcosyl-L-aspartyl-L-valine] (H-[Aoc][Sar]DV-OH), the pIC50 in experiment [1] was 6.64; in experiment [2] it was 5.59. Moreover, in experiment [2], the inhibition at 25 µM was found to be 96%.

Take `CC(C)[C@@H](C(=O)O)N(C)C(=O)[C@H](CC(=O)O)NC(=O)CNC(=O)[C@@H](N)CCCNC(=N)N` [L-arginylglycyl-L-aspartyl-L-(N-methyl)-valine] (H-RGD[NMeV]-OH): the inhibition at 50 µg/mL in experiment [1] (read-out: Inhibition of 125I-Fibrinogen Binding to Platelets: Inhibited <50% at 50 μg/ml) was below 50%. In experiment [2], the pIC50 is 3.80 and the inhibition at 100 µM was 30%.

In the case of `CC(C)[C@H](NC(=O)[C@H](CC(=O)O)NC(=O)CNC(=O)CCCNC(=N)N)C(=O)O` [4-Guanidinobutanoyl-glycyl-L-aspartyl-L-valine], in experiment [1], the pIC50 is 5.00. Moreover, in experiment [2], the pIC50 was 4.66 and the inhibition at 25 µM is 43%.

For `CCN(CC(=O)N[C@@H](CC(=O)O)C(=O)N[C@@H](Cc1c[nH]c2ccccc12)C(=O)O)C(=O)CCCCCNC(=N)N` [6-Guanidinohexanoyl-N-(ethyl)glycyl-L-aspartyl-L-tryptophan], the pIC50 in experiment [1] was 6.89. Further, in experiment [2], the negative logarithm of the IC50 (pIC50) is 5.89 and the inhibition at 25 µM came to 91%.

Consider `N=C(N)NCCCCC(=O)NCC(=O)N[C@@H](CC(=O)O)C(=O)N1CCc2ccccc2C1` [2-[N-(5-guanidinopentanoyl)glycyl-L-aspartyl]-1,2,3,4-tetrahydroisoquinoline], for which the pIC50 in experiment [1] is 3.89. In experiment [2], the pIC50 is 4.69 and the inhibition at 100 µM was determined as 48%.

As for `CC(C)CNC(=O)[C@H](CC(=O)O)NC(=O)CCCCCCCNC(=N)N` [8-Guanidinooctanoyl-L-aspartic acid-α-isobutylamide], the pIC50 was 4.84 in experiment [1] and 5.11 in experiment [2]. Further, the inhibition at 25 µM in experiment [2] was 81%.

In the case of `CC(C)[C@H](NC(=O)[C@H](CC(=O)O)NC(=O)C=CCCCCCCCNC(=N)N)C(=O)O` [10-Guanidinodec-2-enoyl-L-aspartyl-L-valine], the pIC50 in experiment [1] was 4.92. In experiment [2], the pIC50 is 5.06 and the inhibition at 25 µM came to 77%.

Consider `CCN(CC(=O)N[C@@H](CC(=O)O)C(=O)N[C@@H](CC(C)C)C(=O)O)C(=O)CCCCCNC(=N)N` [6-guanidinohexanoyl-N-ethyl-glycyl-L-aspartyl-L-leucine], for which the values for the negative-log IC50 (pIC50) in experiment [1] and in experiment [2] were 5.27 and 6.25, respectively. The inhibition at 25 µM in experiment [2] was determined as 95.5%.

For `CC(C)[C@H](NC(=O)[C@H](CC(=O)O)NC(=O)CCCCCCn1ccnc1)C(=O)O` [7-(Imidazol-1-yl)heptanoyl-L-aspartyl-L-valine], in experiment [1], the pIC50 was 5.70. Further, in experiment [2], the pIC50 is below 4.60 and the inhibition at 25 µM came out at 35%.

As for `N=C(N)NCCCCCC=CC(=O)N[C@@H](CC(=O)O)C(=O)N[C@@H](CCCNC(=N)N)C(=O)O` [8-Guanidinooct-2-enoyl-L-aspartyl-L-arginine], in experiment [1], the pIC50 is 6.24. Moreover, in experiment [2], the negative-log IC50 (pIC50) is 6.20 and the inhibition at 25 µM was found to be 90%.

Consider `CC(C)[C@H](NC(=O)[C@H](CC(=O)O)NC(=O)CNC(=O)CCCCn1ccnc1)C(=O)O` [5-(Imidazol-1-yl)-valeroylglycyl-L-aspartyl-L-valine], for which, in experiment [1], the pIC50 was 5.90. Further, in experiment [2], the negative logarithm of the IC50 (pIC50) was 4.69 and the inhibition at 25 µM came out at 58%.

As a reminder, the pIC50 is the negative decadic logarithm of the IC50, by convention in mol/L.
